For 21 molecules, IC50 results are on record in patent publication US9169241B2, “Quinolinyloxyphenylsulfonamides” (Max-Planck-Gesellschaft Zur Forderung der Wissenschaften …, priority 2009, dated 2015).

The structures appear in SMILES notation.

Type in all cases: cell-based
The subject of one experiment is A172. The experiment in a line: Cell vitality assay (ATP assay, CellTiter-Glo). Particulars: Homo sapiens, A 172; A172, 72 h; Table IIa; read-out: IC50 ATP-Assay after 72 h A172. The method, boiled down: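 Viability is estimated from cellular ATP after 72 h of compound treatment at 1000 cells per well. The dilution series runs 12.5, 6.25, 3.125, 1.56, 0.78, 0.39 and 0.195 μM. Half-maximal values are expressed against DMSO-treated wells.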
For orientation: ATP-based viability assays read luminescence as a measure of living cells.

Another experiment has as its system C8161. The experiment in a line: Apoptosis assay (Cellomics, nucleus condensation). Conditions: Homo sapiens, Table III, read-out: Apoptosis induction in C8161. The method, boiled down:
(§1)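 Cells seeded at 5000 per well were stained live with Hoechst 33342, and nuclear condensation was quantified per nucleus by automated fluorescence imaging alongside cell counts. Compound was tested at 12.5, 6.25, 3.125, 1.56, 0.78 and 0.39 μM against a DMSO control, with reads at 24 h and 48 h.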

The next experiment deals with Hs578T. The experiment in a line: Apoptosis assay (Cellomics, nucleus condensation). Conditions: Homo sapiens, Hs-578T, Table III, read-out: Apoptosis induction in Hs578T. The method, boiled down: as §1
The subject of the next experiment is SF126. Nature of the experiment: Apoptosis assay (Cellomics, nucleus condensation). Particulars: Homo sapiens, SF-126, Table III, read-out: Apoptosis induction in SF126. Summed up: as §1
Another experiment concerns SF763. The experiment in a line: Apoptosis assay (Cellomics, nucleus condensation). Particulars: Table III, read-out: Apoptosis induction in SF763. The method, boiled down:
as §1

In the next experiment the test system is U118. The experiment in a line: Apoptosis assay (Cellomics, nucleus condensation). Conditions: Table III, read-out: Apoptosis induction in U118. The method, boiled down:
as §1

The subject of a further experiment is U138. The experiment in a line: Apoptosis assay (Cellomics, nucleus condensation). Particulars: Table III, read-out: Apoptosis induction in U138. The method, boiled down: as §1
Another experiment relates to cells. Nature of the experiment: Boyden chamber migration assay (Table VI). Particulars: Homo sapiens, Hs-578T, 16 h, Hs578T cells; 16 h migration. The method, boiled down: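 Migration read-out is a count of fixed cells on the underside of an […] insert membrane after 16 h. Chemoattractant was medium with 10% FCS in the lower chamber; 20000 cells started in serum-free medium with 0.1% BSA above, and those left on top were removed by swab.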

As for `COc1cc2c(Oc3ccc(NS(=O)(=O)c4c(Cl)cccc4Cl)cc3F)ccnc2cc1OCCCN1CCCCC1` [Example 6, 2,6-Dichloro-N-{3-fluoro-4-[6-methoxy-7-(3-piperidin-1-yl-propoxy)-quinolin-4-yloxy]-phenyl}-benzenesulfonamide], the IC50 in the experiment on A172 was at most 12.5 µM.

For the molecule `COc1cc2c(Oc3ccc(NS(=O)(=O)c4c(F)cccc4F)cc3F)ccnc2cc1OCCCN1CCCCC1` [Example 11, 2,6-Difluoro-N-{3-fluoro-4-[6-methoxy-7-(3-piperidin-1-yl-propoxy)-quinolin-4-yloxy]-phenyl}-benzenesulfonamide], in the experiment on A172, the IC50 lay in the range of 12.5 to 50 µM.

With `COc1cc2c(Oc3ccc(NS(=O)(=O)c4cc(Cl)cc(Cl)c4OC)cc3F)ccnc2cc1OCCCN1CCCCC1` [Example 34, 3,5-Dichloro-N-{3-fluoro-4-[6-methoxy-7-(3-piperidin-1-yl-propoxy)-quinolin-4-yloxy]-phenyl}-2-methoxy-benzenesulfonamide], the IC50 in the experiment on C8161 was at most 12.5 µM; in the experiment on Hs578T, 12.5 to 50 µM; with SF126, at most 12.5 µM; with SF763, at most 12.5 µM; in the experiment with U118, at most 12.5 µM; with U138 it was at most 12.5 µM. In the experiment with cells, this molecule had an IC50 of at most 5 µM.

For the molecule `COc1cc2c(Oc3ccc(NS(=O)(=O)c4cc(Cl)cc(Cl)c4OC)cc3F)ccnc2cc1OCCCN1CCN(C)CC1` [Example 35, 3,5-Dichloro-N-(3-fluoro-4-{6-methoxy-7-[3-(4-methyl-piperazin-1-yl)-propoxy]-quinolin-4-yloxy}-phenyl)-2-methoxy-benzenesulfonamide], the IC50 with C8161 is at most 12.5 µM; with Hs578T, at most 12.5 µM; with SF126, at most 12.5 µM; in the experiment with SF763 it was at most 12.5 µM; in the experiment on U118 it was at most 12.5 µM; in the experiment with U138, 12.5 to 50 µM. The molecule further showed an IC50 in the experiment on cells of at most 5 µM.

As to `COc1cc2c(Oc3ccc(NS(=O)(=O)c4ccccc4[N+](=O)[O-])cc3F)ccnc2cc1OCCCN1CCCC(C)C1` (stereo not drawn) [Example 40, N-(3-Fluoro-4-{6-methoxy-7-[3-(3-methyl-piperidin-1-yl)-propoxy]-quinolin-4-yloxy}-phenyl)-2-nitro-benzenesulfonamide], the IC50 with A172 is at most 12.5 µM.

`COc1cc2c(Oc3ccc(NS(=O)(=O)c4ccccc4OC(F)(F)F)cc3F)ccnc2cc1OCCCN1CCCC(C)C1` (stereo not drawn) [Example 45, N-(3-Fluoro-4-{6-methoxy-7-[3-(3-methyl-piperidin-1-yl)-propoxy]-quinolin-4-yloxy}-phenyl)-2-trifluoromethoxy-benzenesulfonamide]: in the experiment on A172, the IC50 is at most 12.5 µM.

For `COc1cc2c(Oc3ccc(NS(=O)(=O)c4ccc(F)c(F)c4F)cc3F)ccnc2cc1OCCCN1CCCC(C)C1` (stereo not drawn) [Example 49, 2,3,4-Trifluoro-N-(3-fluoro-4-{6-methoxy-7-[3-(3-methyl-piperidin-1-yl)-propoxy]-quinolin-4-yloxy}-phenyl)-benzenesulfonamide], the IC50 with A172 was at most 12.5 µM.

As to `COc1cc2c(Oc3ccc(NS(=O)(=O)c4c(Cl)cccc4Cl)cc3F)ccnc2cc1OCCCN1CCCC(C)C1` (stereo not drawn) [Example 51, 2,6-Dichloro-N-(3-fluoro-4-{6-methoxy-7-[3-(3-methyl-piperidin-1-yl)-propoxy]-quinolin-4-yloxy}-phenyl)-benzenesulfonamide], the IC50 with A172 is at most 12.5 µM.

On to `COc1cc2c(Oc3ccc(NS(=O)(=O)c4cccc(Cl)c4F)cc3F)ccnc2cc1OCCCN1CCCC(C)C1` (stereo not drawn) [Example 54, 3-Chloro-2-fluoro-N-(3-fluoro-4-{6-methoxy-7-[3-(3-methyl-piperidin-1-yl)-propoxy]-quinolin-4-yloxy}-phenyl)-benzenesulfonamide], for which the IC50 in the experiment with A172 was at most 12.5 µM.

In the case of `COc1cc2c(Oc3ccc(NS(=O)(=O)c4ccc(F)c(Cl)c4)cc3F)ccnc2cc1OCCCN1CCCC(C)C1` (stereo not drawn) [Example 57, 3-Chloro-4-fluoro-N-(3-fluoro-4-{6-methoxy-7-[3-(3-methyl-piperidin-1-yl)-propoxy]-quinolin-4-yloxy}-phenyl)-benzenesulfonamide], the IC50 with C8161 is at most 12.5 µM; in the experiment with Hs578T, at most 12.5 µM; in the experiment with SF126, at most 12.5 µM; in the experiment with SF763, 12.5 to 50 µM; with U118 it was at most 12.5 µM; in the experiment with U138, at most 12.5 µM. The IC50 with cells is 5 to 50 µM.

With `COc1cc2c(Oc3ccc(NS(=O)(=O)c4cccc5ccccc45)cc3F)ccnc2cc1OCCCN1CCCC(C)C1` (stereo not drawn) [Example 58, Naphthalene-1-sulfonic acid (3-fluoro-4-{6-methoxy-7-[3-(3-methyl-piperidin-1-yl)-propoxy]-quinolin-4-yloxy}-phenyl)-amide], the IC50 in the experiment with C8161 is at most 12.5 µM; with Hs578T it was 12.5 to 50 µM; in the experiment with SF126, at most 12.5 µM; in the experiment with SF763 it was at most 12.5 µM; with U118 it was 12.5 to 50 µM; in the experiment with U138, at most 12.5 µM. Besides, the IC50 in the experiment on cells was at most 5 µM.

Take `COc1cc2c(Oc3ccc(NS(=O)(=O)c4ccccc4OC(F)(F)F)cc3F)ccnc2cc1OCCCN1CCCCC1` [Example 78, N-{3-Fluoro-4-[6-methoxy-7-(3-piperidin-1-yl-propoxy)-quinolin-4-yloxy]-phenyl}-2-trifluoromethoxy-benzenesulfonamide]: the IC50 with A172 is at most 12.5 µM.

With `COc1cc2c(Oc3ccc(NS(=O)(=O)c4ccccc4F)cc3F)ccnc2cc1OCCN1CCOCC1` [Example 81, 2-Fluoro-N-{3-fluoro-4-[6-methoxy-7-(2-morpholin-4-yl-ethoxy)-quinolin-4-yloxy]-phenyl}-benzenesulfonamide], the IC50 in the experiment with C8161, in the experiment with Hs578T, with SF126, with SF763, with U118 and in the experiment with U138 was at most 12.5 µM in each case. In addition, the IC50 in the experiment with cells was at most 5 µM.

On to `COc1cc2c(Oc3ccc(NS(=O)(=O)c4c(F)cccc4F)cc3F)ccnc2cc1OCCN1CCOCC1` [Example 82, 2,6-Difluoro-N-{3-fluoro-4-[6-methoxy-7-(2-morpholin-4-yl-ethoxy)-quinolin-4-yloxy]-phenyl}-benzenesulfonamide], for which the IC50 in the experiment with C8161, in the experiment with Hs578T, with SF126, with SF763, in the experiment on U118 and in the experiment with U138 was at most 12.5 µM each time. For the same molecule, the IC50 in the experiment on cells lay in the range of 5 to 50 µM.

As to `COc1cc2c(Oc3cccc(NS(=O)(=O)c4ccccc4C(F)(F)F)c3)ccnc2cc1OCCCN1CCN(C)CC1` [Example 102, N-(3-{6-Methoxy-7-[3-(4-methyl-piperazin-1-yl)-propoxy]-quinolin-4-yloxy}-phenyl)-2-trifluoromethyl-benzenesulfonamide], the IC50 in the experiment with C8161, with Hs578T, in the experiment with SF126, in the experiment with SF763, with U118 and in the experiment with U138 was at most 12.5 µM throughout. The molecule also showed an IC50 in the experiment on cells of at most 5 µM.

Consider `COc1cc2c(Oc3ccc(NS(=O)(=O)c4c(Cl)cccc4Cl)cc3F)ccnc2cc1OCCN1CCOCC1` [Example 104, 2,6-Dichloro-N-{3-fluoro-4-[6-methoxy-7-(2-morpholin-4-yl-ethoxy)-quinolin-4-yloxy]-phenyl}-benzenesulfonamide], for which the IC50 with A172 was in the range of 12.5 to 50 µM.

With `COc1cc2c(Oc3ccc(NS(=O)(=O)c4c(F)cccc4F)cc3F)ccnc2cc1OCCCN1CCN(C)CC1` [Example 110, 2,6-Difluoro-N-(3-fluoro-4-{6-methoxy-7-[3-(4-methyl-piperazin-1-yl)-propoxy]-quinolin-4-yloxy}-phenyl)-benzenesulfonamide], the IC50 with A172 was at most 12.5 µM.

With `COc1cc2c(Oc3ccc(NS(=O)(=O)c4cc(F)ccc4F)cc3Cl)ccnc2cc1OCCCN1CCN(C)CC1` [Example 112, N-(3-Chloro-4-{6-methoxy-7-[3-(4-methyl-piperazin-1-yl)-propoxy]-quinolin-4-yloxy}-phenyl)-2,5-difluoro-benzenesulfonamide], in the experiment with A172, the IC50 is at most 12.5 µM.

Turning to `COc1cc2c(Oc3ccc(NS(=O)(=O)c4c(Cl)cccc4Cl)cc3Cl)ccnc2cc1OCCCN1CCN(C)CC1` [Example 119, 2,6-Dichloro-N-(3-chloro-4-{6-methoxy-7-[3-(4-methyl-piperazin-1-yl)-propoxy]-quinolin-4-yloxy}-phenyl)-benzenesulfonamide], the IC50 with A172 was at most 12.5 µM.

As for `COC(=O)c1sccc1S(=O)(=O)Nc1ccc(Oc2ccnc3cc(OCCCN4CCCCC4)c(OC)cc23)c(F)c1` [Example 155, 3-{3-Fluoro-4-[6-methoxy-7-(3-piperidin-1-yl-propoxy)-quinolin-4-yloxy]-phenylsulfamoyl}-thiophene-2-carboxylic acid methyl ester], the IC50 in the experiment with A172 was at most 12.5 µM.

Regarding `COC(=O)c1sccc1S(=O)(=O)Nc1ccc(Oc2ccnc3cc(OCCCN4CCC(C)CC4)c(OC)cc23)c(F)c1` [Example 156, 3-(3-Fluoro-4-{6-methoxy-7-[3-(4-methyl-piperidin-1-yl)-propoxy]-quinolin-4-yloxy}-phenylsulfamoyl)-thiophene-2-carboxylic acid methyl ester], in the experiment on A172, the IC50 was at most 12.5 µM.
